This note sets out measurements from patent publication US8293721B2, “CETP inhibitors derived from benzoxazole arylamides” (Merck Sharpe & Dohme Corp., priority 2007, dated 2012).

The target of the assay is T1, recombinant human CETP (Homo sapiens, UniProt P11597).
T1 construct: made in house; host or cells: CHO cells
T1 sequence (P11597 18-493): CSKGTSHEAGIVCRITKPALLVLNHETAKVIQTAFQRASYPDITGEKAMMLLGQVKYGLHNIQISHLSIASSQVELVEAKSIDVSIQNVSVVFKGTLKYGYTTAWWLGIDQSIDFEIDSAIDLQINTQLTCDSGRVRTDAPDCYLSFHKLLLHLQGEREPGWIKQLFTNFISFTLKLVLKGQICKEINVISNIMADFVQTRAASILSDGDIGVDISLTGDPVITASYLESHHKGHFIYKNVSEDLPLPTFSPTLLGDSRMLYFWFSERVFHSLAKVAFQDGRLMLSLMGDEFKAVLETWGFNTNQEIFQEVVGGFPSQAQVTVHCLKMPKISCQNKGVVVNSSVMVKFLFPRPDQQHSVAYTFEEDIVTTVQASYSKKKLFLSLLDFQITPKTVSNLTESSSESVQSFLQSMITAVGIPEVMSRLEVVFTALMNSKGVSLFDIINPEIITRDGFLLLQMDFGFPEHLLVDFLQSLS
Nature of the assay: In vitro continuous CETP assay, CE transfer reaction (BODIPY-CE donor particles, fluorescence). Format: biochemical. The conditions noted are these: 25° C., 3% human serum, stated for the compounds 'or a stereoisomer of the compounds', read-out: IC50 value as measured for the CE transfer reaction. The protocol:
An in vitro continuous assay for determining IC50's to identify compounds that are CETP inhibitors was performed based on a modification of the method described by Epps et al. employing BODIPY®-CE as the cholesteryl ester lipid donor and BODIPY®-TG as the triglyceride lipid donor. See Epps et al. (1995) Method for measuring the activities of cholesteryl ester transfer protein (lipid transfer protein), Chem. Phys. Lipids. 77, 51-63.
Particles used in the assay were created from the following materials by probe sonication essentially as described by Epps et al. Synthetic cholesteryl ester (CE) donor HDL particles contained DOPC (Dioleoyl Phosphatidyl Choline), BODIPY®-CE (Molecular Probes C-3927), triolein (a triglyceride), dabcyl dicetylamide, (a non-diffusable quencher molecule to reduce background fluorescence) and apoHDL. Synthetic triglyceride (TG) donor HDL particles contained DOPC, BODIPY®-TG, and apoHDL. BODIPY®-TG was synthesized at room temperature from diolein and the BODIPY containing fatty acid analog 4,4-difluoro-5-(2-thienyl)-4-bora-3a,4a-diaza-s-indacene-3-dodecanoic acid (Molecular Probes) in methylene chloride in the presence of dicyclohexyl carbodimide. Dabcyl dicetylamide was made by heating dabcyl n-succinimide with dicetylamine in DMF at 95° C. overnight in the presence of diisopropylamine catalyst. Native lipoproteins from human blood were used as acceptor particles. Particles having a density less than 1.063 g/ml were collected by ultracentrifugation. These particles include VLDL, IDL, and LDL. Particle concentrations were expressed in terms of protein concentration as determined by BCA assay (Pierce, USA). Particles were stored at 4° C. until use.
Assays were performed in Dynex Microfluor 2 U-bottom black 96-well plates (Cat #7205). An assay cocktail containing CETP, 1×CETP buffer (50 mM Tris, pH 7.4, 100 mM NaCl, 1 mM EDTA), 3% human serum, and half the final concentration of acceptor particles was prepared, and 100 μL of the assay cocktail was added to each well of the plate. Test compounds in DMSO were added in a volume of 3 μL. The plate was mixed on a plate shaker and then incubated at 25° C. for 1 hour. A second assay cocktail containing donor particles, the remaining acceptor particles and 1×CETP buffer was prepared. 47 μL of the second assay cocktail was added to the reaction wells to start the assay. Assays were performed in a final volume of 150 μL. CE transfer reactions were performed as follows: final concentrations of materials were: 2.5 ng/μL CE donor particles, 7.5 ng/μL acceptor particles (each expressed by protein content), 1×CETP buffer, 14-30 nM recombinant human CETP (expressed in CHO cells and partially purified), and up to 2% DMSO when testing compounds; reactions were followed in a fluorescence plate reader (Molecular Devices Spectramax GeminiXS) set for a 45 minute kinetic run at 25° C. which read the samples every 45 sec at Ex=480 nm, Em=511 nm, with a cutoff filter at 495 nm, photomultiplier tube setting of medium, calibration on, and 6 reads/well. TG transfer reactions were performed as described above with the exception that 2.5 ng/uL TG donor particles were used. TG transfer was measured at an excitation wavelength of 538 nm while reading emission at 568 nm every 45 sec for 45 min at 37° C. with a cutoff filter at 550 nm.
Data were evaluated by obtaining an initial rate, expressed in relative fluorescence units per second, for the pseudolinear portion of the curve, often 0-500 or 1000 sec. Comparison of the rates of samples with inhibitors to an uninhibited (DMSO only) positive control yielded a percent inhibition. A plot of percent inhibition vs. log of inhibitor concentration, fit to a Sigmoidal 4 parameter equation was used to calculate IC50.

As usually defined, the IC50 is the concentration that inhibits the measured activity by half. As to `CC(C)Oc1ccc(F)cc1-c1ccc(N2CC(C)(CNC(=O)c3ccc(-c4nc5cc(C#N)cc(C(C)C)c5o4)cc3)OC2=O)nc1` (stereo not shown) [Example 54], the IC50 was in the range of 18 to 100 nM.
With `CC(C)Oc1ccc(F)cc1-c1ccc(N2C[C@@H](CNC(=O)c3ccc(-c4nc5cc(C#N)cc(C(C)C)c5o4)cc3)OC2=O)nc1` [Example 30] the figure was 18 to 100 nM; with `CC(C)c1cc(C#N)cc2nc(-c3ccc(C(=O)NCC4CN(c5ccc(-c6ccccc6OC(F)(F)F)cn5)C(=O)O4)cc3)oc12` (stereo not shown) [Example 2, 4-(5-Cyano-7-isopropyl-1,3-benzoxazol-2-yl)-N-[(2-oxo-3-{5-[2-(trifluoromethoxy)phenyl]pyridin-2-yl}-1,3-oxazolidin-5-yl)methyl]benzamide], 18 to 100 nM.
As for `CC(C)Oc1cccc(F)c1-c1ccc(N2C[C@H](CNC(=O)c3ccc(-c4nc5cc(C#N)cc(C(C)C)c5o4)cc3)OC2=O)nc1` [Example 48], the figure is 18 to 100 nM.
For the molecule `CC(C)COc1ccccc1-c1ccc(N2CC(CNC(=O)c3ccc(-c4nc5cc(C#N)cc(C(C)C)c5o4)cc3)OC2=O)nc1` (stereo not shown) [Example 7], the IC50 is 18 to 100 nM.
Regarding `COc1ccccc1-c1ccc(N2C[C@H](CNC(=O)c3ccc(-c4nc5cc(C#N)cc(C(C)C)c5o4)cc3)OC2=O)nc1` [Example 43], the IC50 was 18 to 100 nM.
As for `COc1cc(F)c(C(C)C)cc1-c1ccc(N2C[C@@H](CNC(=O)c3ccc(-c4nc5cc(C#N)cc(C(C)C)c5o4)cc3)OC2=O)nc1` [Example 31], the IC50 is 18 to 100 nM.
In the case of `CC(C)c1cc(C#N)cc2nc(-c3ccc(C(=O)NCC4(C)CN(c5ccc(-c6ccccc6OC(F)(F)F)cn5)C(=O)O4)cc3)oc12` (stereo not shown) [Example 51, 4-(5-Cyano-7-isopropyl-1,3-benzoxazol-2-yl)-N-[(5-methyl-2-oxo-3-{5-[2-(trifluoro-methoxy)phenyl]pyridin-2-yl}-1,3-oxazolidin-5-yl)methyl]benzamide], the IC50 was 18 to 100 nM.
In the case of `COc1ccccc1-c1ccc(N2CC(C)(CNC(=O)c3ccc(-c4nc5cc(C#N)cc(C(C)C)c5o4)cc3)OC2=O)nc1` (stereo not shown) [Example 53], the IC50 was in the range of 18 to 100 nM.
In the case of `CC(C)c1cc(C#N)cc2nc(-c3ccc(C(=O)NCC4(C)CN(c5ccc(-c6ccccc6)cn5)C(=O)O4)cc3)oc12` (stereo not shown) [Example 55], the IC50 is 18 to 100 nM.
